Results as given in patent publication US8653080B2, “Methods for screening and compounds that protect against amyloid diseases” (Salk Institute for Biological Studies, priority 2009, dated 2014).

Assays:
[1] = test system: CL660 animals; experiment: vGFP signal scoring in transgenic C. elegans (CL660) expressing Aβ, liquid culture; assay type: in vivo; details: compounds at 100 μM in S-media; 36 hours into adulthood; FIG. 18; control DMSO 0.1%
Experimental: Identification of compounds that inhibit aggregation-mediated proteotoxicity was carried out using transgenic C. elegans strain, which expresses human Aβ1-42 within body wall muscles under the direction of the myo-3 promoter cause by induction at 25 C and inhibition of smg-1 activity. This induction in the absence of an effective inhibitor causes association of a heat shock protein-GFP fusion construct with the Aβ1-42 (a schematic of this model is shown in FIG. 2).
Twenty-four hours after placing the L1-stage worms into the fridge, the plates were removed for fileting. Fifteen to twenty-five worms each were placed into wells of a microtiter plate containing compounds to be tested in an aqueous environment or a corresponding control. Only worms that were moving normally were filleted. The worms were incubated for approximately 36 hours or until L3 stage was reached. Aβ toxicity was then generated by growing the worms at 25 C for 18 hours which effects smg-1 activity. […] Typically the worms settled to the bottom of the well and were counted manually.
(§1) Animals were grown at 15° C. until adulthood. Gravid adults were suspended and bleached; eggs were resuspended in M9 salt solution and allowed to hatch for 24 hours at 15° C. Compounds were added to S-media at 100 μM concentration and then aliquoted to 48-well Costar plates at 400 μL per well. As a control, DMSO was added to S-media at 0.1% concentration. L1 hatched larvae were added to each well at 50-100 animals per 25 μL aliquot. Worms were thus grown in liquid media until reaching the third larval stage (L3) at 15° C. At L3 worms were shifted to 25° C. to begin biogenesis of Aβ protein. Observation began 24 hours later when the animals have reached adulthood (timepoint=0 hrs). Animals were scored as either with or without vGFP signal, regardless of intensity level.

[2] = test system: CL660 animals; experiment: vGFP scoring in CL660 animals fed bacteria expressing RNAi (daf-16, hsf-1) plus compound; assay type: in vivo, C. elegans; details: for effect of DAF-16 knockdown on the beneficial effects (vGFP) of the compound: daf-16 RNAi, FIG. 19; for effect of HSF-1 knockdown on vGFP expression with the compound: hsf-1 RNAi, FIG. 20
Experimental: as §1
In order to determine a pathway the compounds are acting upon, experiments were performed with genetics already known to be involved in the handling of Aβ aggregation. The insulin/IGF-1 pathway plays a role in the handling of cellular stress. DAF-2 is the sole insulin/IGF-1 receptor in C. elegans and depletion of DAF-2 results in long-lived, stress resistant worms. The Aβ protein applies a biochemical stress to cellular activity as shown by the hsp-16.2 activity in response to its presence. […] DAF-16 encodes a FOXO transcription factor and is required for the lifepan extension in worms fed daf-2RNAi. HSF-1 is also required for the lifespan extension seen in worms fed daf-2 RNAi.
CL660 animals were fed bacteria expressing RNAi suspended in S-basal solution.

| SMILES | vGFP in CL660 animals compared to control [1] | effect of DAF-16 knockdown on the beneficial effects (vGFP) of the compound [2] | effect of HSF-1 knockdown on vGFP expression with the compound [2] |
| --- | --- | --- | --- |
| CCCCN1C(=O)[C@H](COCc2ccccc2)NC(=O)C1C(=O)NCc1ccccc1 (some centres unmarked) [D7] | reduced vGFP | partially suppressed the beneficial effects | no effect on vGFP expression |
| O=C(NCc1ccccc1)C1C(=O)N[C@@H](COCc2ccccc2)C(=O)N1Cc1cccnc1 (some centres unmarked) [E7] | reduced vGFP |  |  |
| CCC(CC)N1C(=O)[C@H](COCc2ccccc2)NC(=O)C1C(=O)NCc1ccccc1 (some centres unmarked) [F7] | reduced vGFP | partially suppressed the beneficial effects | no effect on vGFP expression |
| O=C(NCc1ccccc1)C1C(=O)N[C@@H](COCc2ccccc2)C(=O)N1C1CCCC1 (some centres unmarked) [H7] | reduced vGFP |  |  |
